# Values of other authors in patent publication US10781456B2, “Carbon-neutral and carbon-positive photorespiration bypass routes supporting higher photosynthetic rate and yield” (Max-Planck-Gesellschaft zur Förderung der Wissenschaften …, priority 2015, dated 2020).
# Molecular target: T1, 3-phosphoglycerate kinase (Sus scrofa, UniProt Q7SIB7)
# T1 sequence (Q7SIB7 1-417): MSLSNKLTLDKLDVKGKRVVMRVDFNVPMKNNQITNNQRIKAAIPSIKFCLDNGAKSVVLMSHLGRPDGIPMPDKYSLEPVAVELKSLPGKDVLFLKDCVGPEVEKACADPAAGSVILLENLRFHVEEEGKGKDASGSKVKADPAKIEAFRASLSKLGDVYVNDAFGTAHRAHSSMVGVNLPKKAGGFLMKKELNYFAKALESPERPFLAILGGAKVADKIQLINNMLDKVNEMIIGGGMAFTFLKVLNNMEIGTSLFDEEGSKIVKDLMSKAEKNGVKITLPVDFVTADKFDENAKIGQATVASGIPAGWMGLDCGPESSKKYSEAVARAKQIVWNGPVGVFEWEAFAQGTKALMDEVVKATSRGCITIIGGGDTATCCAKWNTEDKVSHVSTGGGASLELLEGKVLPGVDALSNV
# Settings: Tompa 1986; Vas 1990; Szilagyi 1998; cited from earlier work
structure (smiles),measurement,value
"O=C(O)COP(=O)(O)O [2-PG, 2-phosphoglycolate]",type of inhibition of 3-phosphoglycerate kinase,competitive inhibitor
